Consider 2 molecules from ChEMBL document CHEMBL1127517 (J Med Chem, 1994).

For data set [1], the target named is Sodium-dependent dopamine transporter (Rattus norvegicus, UniProt P23977). Nature of the data set: Inhibitory constant towards reuptake of [125I]-12 from dopamine transporter in rat striatal membranes. In kind it is cell membranes, Membrane.
In data set [2] the test system is Rattus norvegicus. Description: Distribution of radio activity in tissues of unfasted male rats was measured alungblood after intravenous administration. In kind it is ADME, organism-based, Lung. As to conditions: in vivo.
Data set [3] concerns Rattus norvegicus. Description: Distribution of radio activity in tissues of unfasted male rats was measured as at 2 min of time in skin after intravenous administration. As to conditions: in vivo. It counts as ADME, organism-based.
Data set [4] has as its system Rattus norvegicus. Description: Distribution of radio activity in tissues of unfasted male rats was measured at 120 min of time in blood after intravenous administration. In kind it is ADME, organism-based. As to conditions: in vivo, 2 h.
Data set [5] relates to Rattus norvegicus. Nature of the data set: Distribution of radio activity in tissues of unfasted male rats was measured at 120 min of time in heart after intravenous administration. It counts as ADME, organism-based. As to conditions: in vivo, 2 h.
Data set [6] relates to Rattus norvegicus. Description: Distribution of radio activity in tissues of unfasted male rats was measured at 120 min of time in lung after intravenous administration. It counts as ADME, organism-based. As to conditions: in vivo, 2 h.
In data set [7] the test system is Rattus norvegicus. Description: Distribution of radio activity in tissues of unfasted male rats was measured at 2 min of time in kidney after intravenous administration. In kind it is ADME, organism-based. As to conditions: in vivo.
Data set [8] relates to Rattus norvegicus. Description: Distribution of radio activity in tissues of unfasted male rats was measured at 30 min of time in muscle after intravenous administration. As to conditions: in vivo, 0.5 h. It counts as ADME, organism-based, Muscle tissue.
The test system of data set [9] is Rattus norvegicus. Description: Distribution of radio activity in tissues of unfasted male rats was measured at 30 min of time in skin after intravenous administration. In kind it is ADME, organism-based. As to conditions: in vivo, 0.5 h.
For data set [10], the system named is Rattus norvegicus. Nature of the data set: Distribution of radio activity in tissues of unfasted male rats was measured at 30 min of time in liver after intravenous administration. In kind it is ADME, organism-based. As to conditions: in vivo, 0.5 h.
Data set [11] deals with Rattus norvegicus. Description: Distribution of radio activity in tissues of unfasted male rats was measured at 60 min of time in lung after intravenous administration. In kind it is ADME, organism-based. As to conditions: in vivo, 1 h.
In data set [12] the test system is Rattus norvegicus. Description: Distribution of radio activity in tissues of unfasted male rats was measured as regional uptake at 120 min of time in hippocampus after intravenous administration. In kind it is ADME, organism-based. As to conditions: in vivo, 2 h.
In data set [13] the test system is Rattus norvegicus. Nature of the data set: Distribution of radio activity in tissues of unfasted male rats was measured as regional uptake at 2 min of time in ST/CB after intravenous administration. It counts as ADME, organism-based. As to conditions: in vivo.
The test system of data set [14] is Rattus norvegicus. Nature of the data set: Distribution of radio activity in tissues of unfasted male rats was measured as regional uptake at 2 min of time in cerebellum after intravenous administration. As to conditions: in vivo. In kind it is ADME, organism-based.
The test system of data set [15] is Rattus norvegicus. Nature of the data set: Distribution of radio activity in tissues of unfasted male rats was measured at 2 min of time in spleen after intravenous administration. It counts as ADME, organism-based. As to conditions: in vivo.
Data set [16] relates to Rattus norvegicus. Description: Distribution of radio activity in tissues of unfasted male rats was measured as at 2 min of time in lung after intravenous administration. As to conditions: in vivo. It counts as ADME, organism-based.
For data set [17], the system named is Rattus norvegicus. Description: Distribution of radio activity in tissues of unfasted male rats was measured at 120 min of time in lung after intravenous administration. In kind it is ADME, organism-based. As to conditions: in vivo, 2 h.
The subject of data set [18] is Rattus norvegicus. Description: Distribution of radio activity in tissues of unfasted male rats was measured at 2 min of time in skin after intravenous administration. In kind it is ADME, organism-based. As to conditions: in vivo.

Structures are written as SMILES.

Chain of Sodium-dependent dopamine transporter (P23977 whole entry): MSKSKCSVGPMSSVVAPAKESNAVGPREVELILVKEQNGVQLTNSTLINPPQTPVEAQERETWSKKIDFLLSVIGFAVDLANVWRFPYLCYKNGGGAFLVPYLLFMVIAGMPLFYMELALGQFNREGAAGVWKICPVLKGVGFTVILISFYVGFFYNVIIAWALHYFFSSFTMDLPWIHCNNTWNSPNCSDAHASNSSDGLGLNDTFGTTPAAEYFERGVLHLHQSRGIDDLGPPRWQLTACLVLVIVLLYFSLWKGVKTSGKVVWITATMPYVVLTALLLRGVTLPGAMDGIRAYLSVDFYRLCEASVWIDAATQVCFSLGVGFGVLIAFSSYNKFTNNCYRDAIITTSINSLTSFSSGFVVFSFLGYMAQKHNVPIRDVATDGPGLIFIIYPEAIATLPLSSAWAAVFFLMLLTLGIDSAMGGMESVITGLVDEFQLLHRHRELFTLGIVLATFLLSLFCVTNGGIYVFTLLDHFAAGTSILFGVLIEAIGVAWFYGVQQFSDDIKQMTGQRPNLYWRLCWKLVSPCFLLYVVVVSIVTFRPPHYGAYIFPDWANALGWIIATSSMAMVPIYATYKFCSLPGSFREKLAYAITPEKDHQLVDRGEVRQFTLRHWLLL

Take `COC(=O)C1C(c2ccc(Cl)cc2)CC2CCC1N2C/C=C\I` (stereo not given): the affinity in data set [1], expressed as Ki, was 1.27 nM. For the same molecule, the Injected dose/organ is 1.23% in data set [2]; 7.27% in data set [3]; 5.16% in data set [4]; 0.11% in data set [5]; 0.4% in data set [6]; 2.65% in data set [7]. The Injected dose/organ was 17.43% in [8]; 26.73% in data set [9]; 2.78% in [10]; 0.5% in data set [11]; 0.4% in data set [15]. The Dose/g in data set [12] was found to be 0.03%; in data set [13], 1.12%; in data set [14], 0.82%.

For `COC(=O)C1C(c2ccc(Cl)cc2)CC2CCC1N2C/C=C/I` (stereo not given), the Ki in data set [1] worked out at 0.69 nM. The Injected dose/organ in [16] came out at 1.19%; in data set [4] it was 4.77%; in [5] it was 0.11%; in [17], 0.31%; in data set [7] it was 3.11%; in [18], 5.14%. Further, the Injected dose/organ is 18.54% in [8]; 23.76% in data set [9]; 3.72% in [10]; 0.4% in [11]; 0.41% in data set [15]. Moreover, the Dose/g in [12] is given as 0.038%; in data set [13], 1.18%; in data set [14], 0.97%.

As a reminder, the Ki is the dissociation constant of the complex between target and ligand, obtained from inhibition or displacement.
